These results are taken from the supplement of paper PMC5412046.

Structures can show the parent of a compound that is named as a salt.

Assay [1] has as its system SB.msgc-1. Kind of assay: area under the dose-response curve of % viability (trapezoidal, 11 doses) (% viability x log10 concentration); higher = less cytotoxic. To be noted: SB.msgc-1 (sporadic gastric cancer). The method in brief: (§1)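 The measure is viability normalised to DMSO, given as trapezoidal area under the curve or at the highest concentration. Patient-derived gastric cancer cells, hereditary or sporadic, were exposed for 48 h to compound at 11 threefold-diluted concentrations, each compound's top concentration being recorded. Luminescence was read on a ViewLux after 30 min with CellTiter-Glo at room temperature.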

Assay [2] has as its system SB.mhdgc-1. Described as above. To be noted: SB.mhdgc-1 (hereditary c.1380delA CDH1 gastric cancer). The method in brief: as §1
Assay [3] concerns SB.msgc-1. In words: viability at highest tested concentration (MAXR) relative to DMSO; higher = less cytotoxic. To be noted: SB.msgc-1 (sporadic gastric cancer). The method in brief: as §1
The test system of assay [4] is SB.mhdgc-1. The description is as above. The conditions noted are these: SB.mhdgc-1 (hereditary c.1380delA CDH1 gastric cancer). The method in brief: as §1

The viability is a read-out of living cells in per cent, often relative to untreated cells. For the molecule `CC[C@H](C)[N]1C=C(C)C2=C1C=C(C=C2C(=O)NC\C3=C(C)\C=C(\C)NC3=O)C4=CC=C(N=C4)N5CCNCC5` [GSK126] (top concentration 46.0829 µM), the figures for the “area under the dose-response curve” value in the assay with SB.msgc-1 [1] and with SB.mhdgc-1 [2] were 444 and 389, respectively. Further, the viability in the assay on SB.msgc-1 [3] is 18.6%; in the assay on SB.mhdgc-1 [4] it was 3.9%.

With `Cc1coc2c1C(=O)C(=O)c1c-2ccc2c(C)cccc12` [Tanshinone I] (top concentration 46.0829 µM), the figures for the “area under the dose-response curve” value in the assay on SB.msgc-1 [1] and in the assay on SB.mhdgc-1 [2] were 541 and 501, respectively. Further, the viability with SB.msgc-1 [3] turned out to be 115%; in the assay on SB.mhdgc-1 [4] it was 34.1%.

In the case of `NC(=O)c1ccc(I)c([N+](=O)[O-])c1` [Iniparib] (top concentration 46.0829 µM), the “area under the dose-response curve” value in the assay on SB.msgc-1 [1] came out at 474; with SB.mhdgc-1 [2] it was 583. The viability came out at 81.8% with SB.msgc-1 [3] and 36.6% with SB.mhdgc-1 [4].

For `COc1ccccc1[C@H](c1cccc2ccccc12)[C@@](C)(C#N)C(=O)N1CCC(c2cccc(C(F)(F)F)c2)CC1` (top concentration 46.0829 µM), the figures for the “area under the dose-response curve” value in the assay on SB.msgc-1 [1] and in the assay on SB.mhdgc-1 [2] were 479 and 445, respectively. In addition, the viability in the assay with SB.msgc-1 [3] is 75.2%; in the assay on SB.mhdgc-1 [4], 25.3%.

For `CC(C)[N+]1(C)C2CCC1CC(OC(=O)C(CO)c1ccccc1)C2.O.[Br-]` (configuration not stated) [Ipratropium bromide] (top concentration 46.0829 µM), the “area under the dose-response curve” value with SB.msgc-1 [1] was 504; in the assay with SB.mhdgc-1 [2] it was 466. The viability is 86.3% in the assay with SB.msgc-1 [3] and 89.3% in the assay with SB.mhdgc-1 [4].

Take `N[S+](=O)([O-])c1cc(Cl)c(Cl)c([S+](N)(=O)[O-])c1` [Diclofenamide] (top concentration 46.0829 µM): the entries for the “area under the dose-response curve” value in the assay with SB.msgc-1 [1] and in the assay on SB.mhdgc-1 [2] were 575 and 592, respectively. For the same molecule, the viability in the assay with SB.msgc-1 [3] amounted to 118%; in the assay with SB.mhdgc-1 [4], 112%.

Regarding `CCCCCCCCc1ccc(CCC(N)(CO)CO)cc1` [Fingolimod hydrochloride] (top concentration 46.0829 µM), the “area under the dose-response curve” value in the assay on SB.msgc-1 [1] is 489; in the assay on SB.mhdgc-1 [2], 469. Moreover, the viability was determined as 0.854% in the assay with SB.msgc-1 [3] and 1.7% in the assay with SB.mhdgc-1 [4].

On to `COc1cc2nccc(Oc3ccc(NC(=O)Nc4ccc(F)cc4F)c(F)c3)c2cc1OC` [KI-8751] (top concentration 46.0829 µM), for which the “area under the dose-response curve” value in the assay on SB.msgc-1 [1] came out at 484; in the assay on SB.mhdgc-1 [2], 490. Further, the viability in the assay with SB.msgc-1 [3] worked out at 57.2%; in the assay with SB.mhdgc-1 [4], 26.1%.

As for `CN(C)c1ccc(O)c2c1C[C@H]1C[C@H]3[C@H](N(C)C)C(O)=C(C(N)=O)C(=O)[C@@]3(O)C(O)=C1C2=O` [Minocycline] (top concentration 46.0829 µM), the results for the “area under the dose-response curve” value in the assay on SB.msgc-1 [1] and with SB.mhdgc-1 [2] were 431 and 450, respectively. For the same molecule, the viability with SB.msgc-1 [3] was 26.2%; in the assay on SB.mhdgc-1 [4], 27.4%.

With `CN(C)c1nc(Cc2ccc(NC(=O)c3ccc(C(F)(F)F)cc3)cc2)nc(N(C)C)c1CC(=O)O` [AP-761] (top concentration 46.0829 µM), the entries for the “area under the dose-response curve” value in the assay on SB.msgc-1 [1] and in the assay with SB.mhdgc-1 [2] were 542 and 490, respectively. Moreover, the viability in the assay with SB.msgc-1 [3] and in the assay on SB.mhdgc-1 [4] was 113% throughout.

On to `NCCCC(N)(C(=O)O)C(F)F` (configuration not stated) [Eflornithine Hydrochloride] (top concentration 46.0829 µM), for which the “area under the dose-response curve” value came out at 528 in the assay with SB.msgc-1 [1] and 485 in the assay on SB.mhdgc-1 [2]. In addition, the viability was 52.8% with SB.msgc-1 [3] and 54.1% in the assay with SB.mhdgc-1 [4].

For `COc1cc2nc(N3CCCN(C)CC3)nc(NC3CCN(Cc4ccccc4)CC3)c2cc1OC` (top concentration 46.0829 µM), the “area under the dose-response curve” value with SB.msgc-1 [1] is 450; with SB.mhdgc-1 [2], 420. The viability came out at 40.8% in the assay with SB.msgc-1 [3] and 5.5% in the assay on SB.mhdgc-1 [4].

For the molecule `C[C@H]([C@H](O)CCC(C)(C)O)[C@H]1CC[C@@]2(O)C/3=C/C(=O)[C@@H]4C[C@@H](O)[C@@H](O)C[C@]4(C)[C@H]3CC[C@]12C` [Ecdysone] (top concentration 46.0829 µM), the “area under the dose-response curve” value turned out to be 561 in the assay with SB.msgc-1 [1] and 582 in the assay on SB.mhdgc-1 [2]. Moreover, the viability in the assay on SB.msgc-1 [3] turned out to be 112%; in the assay with SB.mhdgc-1 [4], 142%.

As to `O=P(O)(O)C(O)(Cn1ccnc1)P(=O)(O)O` [Zoledronic acid monohydrate] (top concentration 23.0415 µM), the results for the “area under the dose-response curve” value in the assay with SB.msgc-1 [1] and in the assay on SB.mhdgc-1 [2] were 578 and 608, respectively. Besides, the viability in the assay on SB.msgc-1 [3] was 120%; in the assay with SB.mhdgc-1 [4], 124%.

As to `O=C1C[C@@H](c2ccc(O)cc2)Oc2cc(O)cc(O)c21` [Naringenin] (top concentration 46.0829 µM), the “area under the dose-response curve” value was determined as 520 in the assay on SB.msgc-1 [1] and 572 in the assay on SB.mhdgc-1 [2]. Also, the values for the viability in the assay on SB.msgc-1 [3] and in the assay on SB.mhdgc-1 [4] were 113% and 112%, respectively.

With `CN(C)[C@@H](CCOc1cccc2ccccc12)c1ccccc1` [Dapoxetine hydrochloride] (top concentration 46.0829 µM), the “area under the dose-response curve” value turned out to be 516 with SB.msgc-1 [1] and 463 in the assay on SB.mhdgc-1 [2]. In addition, the viability with SB.msgc-1 [3] is 47%; in the assay on SB.mhdgc-1 [4], 15.4%.

As to `OC1CCC(Nc2ncc3nc(Nc4c(F)cc(F)cc4F)n([C@@H]4CCOC4)c3n2)CC1` (some centres not stated) (top concentration 46.0829 µM), the “area under the dose-response curve” value worked out at 502 in the assay on SB.msgc-1 [1] and 505 in the assay with SB.mhdgc-1 [2]. Besides, the results for the viability in the assay on SB.msgc-1 [3] and in the assay on SB.mhdgc-1 [4] were 97% and 92.7%, respectively.

In the case of `Cc1cnc(Nc2cccc(CN3CCOCC3)c2)nc1Nc1cccc([S+](=O)([O-])NC(C)(C)C)c1` [TG-89] (top concentration 46.0829 µM), the results for the “area under the dose-response curve” value with SB.msgc-1 [1] and in the assay on SB.mhdgc-1 [2] were 439 and 434, respectively. The viability in the assay on SB.msgc-1 [3] amounted to 14.5%; in the assay with SB.mhdgc-1 [4], 6.02%.

For the molecule `ClC1=C(N\C2=N\CCN2)C3=NSN=C3C=C1` [Tizanidine hydrochloride] (top concentration 46.0829 µM), the entries for the “area under the dose-response curve” value in the assay on SB.msgc-1 [1] and with SB.mhdgc-1 [2] were 570 and 536, respectively. In addition, the viability in the assay on SB.msgc-1 [3] worked out at 132%; in the assay with SB.mhdgc-1 [4], 131%.

`CC(C)C(=O)Nc1ccc([N+](=O)[O-])c(C(F)(F)F)c1` [Flutamide] (top concentration 46.0829 µM): the “area under the dose-response curve” value in the assay on SB.msgc-1 [1] came out at 401; in the assay with SB.mhdgc-1 [2], 378. For the same molecule, the viability in the assay with SB.msgc-1 [3] came out at 4.49%; in the assay with SB.mhdgc-1 [4] it was 4.9%.

Regarding `CN(C)CCc1c[nH]c2ccc(C[S+](=O)([O-])N3CCCC3)cc12` [Almotriptan] (top concentration 46.0829 µM), the “area under the dose-response curve” value in the assay with SB.msgc-1 [1] turned out to be 560; with SB.mhdgc-1 [2], 518. In addition, the viability with SB.msgc-1 [3] is 90.3%; in the assay on SB.mhdgc-1 [4], 79.1%.

For the molecule `Clc1ccccc1C(c1ccccc1)(c1ccccc1)n1ccnc1` [Clotrimazole] (top concentration 46.0829 µM), the “area under the dose-response curve” value was 525 with SB.msgc-1 [1] and 527 in the assay on SB.mhdgc-1 [2]. Moreover, the viability in the assay with SB.msgc-1 [3] amounted to 64.8%; in the assay on SB.mhdgc-1 [4], 72.4%.

`CC(C)n1nc(-c2cc3cc(O)ccc3[nH]2)c2c(N)ncnc21` [PP-242] (top concentration 46.0829 µM): the “area under the dose-response curve” value in the assay with SB.msgc-1 [1] was found to be 430; with SB.mhdgc-1 [2], 343. Moreover, the viability with SB.msgc-1 [3] was 29.3%; with SB.mhdgc-1 [4], 36.9%.
